Test results taken from PubChem BioAssay AID2060896 (Molecular Pharmacology Branch, DTP, NCI, 2025).

Tested on: 941728-121-R-J1-PDC complex spheroid viability
Experiment: Anticancer human tumor 941728-121-R-J1-PDC patient-derived lung adenocarcinoma cell line growth inhibition [RAS]
Conditions: for IC50: curve of first compound; for viability, T/C: stronger effect = lower value; active = viability on the fitted dose curve at most 10% of control; inactive = the rest
Description: RAS pathway inhibitors in Combinations in Complex Spheroids
A high-throughput screen of multi-cell type tumor spheroids was designed to identify active combinations of RAS pathway inhibitors and targeted small molecules. Complex spheroids include a stromal component modeled by human endothelial cells (HUVEC) and fibroblasts modeled by human mesenchymal stem cells (MSCs). The concentration ranges selected for each drug and investigational agent were based upon clinically achievable concentrations if the clinical Cmax of the agent was known.
Compounds. The drugs and investigational agents: abemaciclib (NSC768073), cobimetinib (NSC768068), divarasib (GDC6063, NSC841802), docetaxel (NSC628503), GDC-1971 (RLY-1971, NSC841576), gemcitabine (NSC613327), inavolisib (NSC800729), ipatasertib (NSC767898), KB-0742 (NSC834161), MRTX-1133 (NSC836407), osimertinib (NSC779217), RMC-4630 (NSC839698), RMC-6236 (NSC851965), RMC-6291 (NSC852671), Ro-3306 (NSC812927), sapanisertib (NSC764658), SN-38 (NSC673596), staurosporine (NSC755774), SY5609 (NSC837396), and tovorafenib (DAY101, NSC766906), were obtained from the National Cancer Institute (NCI) Developmental Therapeutics Program Chemical Repository. The FDA-approved anticancer drug set is available from the NCI Developmental Therapeutics Program. […] The stock solutions were prepared in dimethyl sulfoxide (DMSO, Sigma-Aldrich, St. Louis, MO, cat. D2650) at 800-fold the tested concentration and stored at -70 degrees C prior to their use. All drugs and investigational agents were tested over a range starting from a high concentration at or near the clinical Cmax and decreasing in half-log increments. If the clinical Cmax for an agent had not been determined, the highest concentration tested was 10 microM.
Cell Culture. All cells were maintained in an incubator at 37 degrees C and 5% CO2 with 95% humidity. The PDC lines were cultured according to standard operating procedures established by the NCI PDMR. All PDCs were thawed and cultured in Matrigel-coated flasks prepared with a working solution of 1X Ham's F-12 nutrient mix, without supplementation (Invitrogen, Waltham, MA, cat. 11765054), 100 U/mL penicillin-streptomycin (Invitrogen, cat. 15140122), and 2.5% Matrigel (Corning Inc., Corning, NY, cat. 354248) for the first three passages. The 362531-283-R-J2-PDC and 782815-120-R-J1-PDC lines were cultured in 6C/Colon 1B media, which includes advanced DMEM/F-12 (Thermo Fisher Scientific, cat. 12634028), 10 mM HEPES (Thermo Fisher Scientific, cat. 15630080), 1X GlutaMAX supplement (Thermo Fisher Scientific, cat. 35050061), 0.1 mg/mL primocin (InvivoGen, San Diego, CA, cat. ant-pm-2), 10% defined fetal bovine serum, heat inactivated (HyClone Laboratories Inc., Logan, UT, cat. SH30070.03HI), 50% L-WRN conditioned media (ATCC, cat. CRL-3276), 1.25 mM N-Acetyl-L-cysteine (Sigma-Aldrich, cat. A9165), 10 mM nicotinamide (Sigma-Aldrich, cat. N0636), 1X B-27 supplement (Thermo Fisher Scientific, cat. 17504044), 1X N-2 supplement (Thermo Fisher Scientific, cat. 17502048), 50 ng/mL human EGF (Thermo Fisher Scientific, cat. PHG0311), and 10 microM Y-27632 dihydrochloride (Tocris Bioscience, cat. 1254). The K12877-001-R-J1-PDC line was cultured in 6I media, which includes all 6C/Colon 1B media plus 10 ng/mL human FGF-10 (PeproTech, cat. 100-26), 1 ng/mL human FGF-2 (PeproTech, cat. 100-18B), 1 µM prostaglandin E2 (Tocris Bioscience, cat. 2296), […] hydrocortisone (Sigma-Aldrich, cat. H4001), and […] bovine insulin (Sigma-Aldrich, cat. I6634). The K86415-001-R-J1-PDC line was cultured in 6D media, which includes all 6C/Colon 1B media components minus the L-WRN conditioned media. The 485176-168-R4-J1-PDC was cultured in PANC media, which includes all 6C/Colon 1B media plus 100 ng/mL human FGF-10 (PeproTech, cat. 100-26), 500 nM SB-431542 (Selleckchem, cat. S1067), and 10 nM gastrin (Tocris Bioscience, cat. 3006). […]

[1] = second compound 0.00316 µM, first compound 0.0316 µM
[2] = second compound 0.00316 µM, first compound 0.1 µM
[3] = second compound 0.00316 µM, first compound 0.316 µM
[4] = second compound 0.00316 µM, first compound 1 µM
[5] = second compound 0.00316 µM, first compound 3.16 µM
[6] = second compound 0.00316 µM, first compound 10 µM
[7] = second compound 0.01 µM, first compound 0.0316 µM
[8] = second compound 0.01 µM, first compound 0.1 µM
[9] = second compound 0.01 µM, first compound 0.316 µM
[10] = second compound 0.01 µM, first compound 1 µM
[11] = second compound 0.01 µM, first compound 3.16 µM
[12] = second compound 0.01 µM, first compound 10 µM
[13] = second compound 0.0316 µM, first compound 0.0316 µM
[14] = second compound 0.0316 µM, first compound 0.1 µM
[15] = second compound 0.0316 µM, first compound 0.316 µM
[16] = second compound 0.0316 µM, first compound 1 µM
[17] = second compound 0.0316 µM, first compound 3.16 µM
[18] = second compound 0.0316 µM, first compound 10 µM
[19] = second compound 0.1 µM, first compound 0.0316 µM
[20] = second compound 0.1 µM, first compound 0.1 µM
[21] = second compound 0.1 µM, first compound 0.316 µM
[22] = second compound 0.1 µM, first compound 1 µM
[23] = second compound 0.1 µM, first compound 3.16 µM
[24] = second compound 0.1 µM, first compound 10 µM
[25] = second compound 0.316 µM, first compound 0.0316 µM
[26] = second compound 0.316 µM, first compound 0.1 µM
[27] = second compound 0.316 µM, first compound 0.316 µM
[28] = second compound 0.316 µM, first compound 1 µM
[29] = second compound 0.316 µM, first compound 3.16 µM
[30] = second compound 0.316 µM, first compound 10 µM
[31] = second compound 1 µM, first compound 0.0316 µM
[32] = second compound 1 µM, first compound 0.1 µM
[33] = second compound 1 µM, first compound 0.316 µM
[34] = second compound 1 µM, first compound 1 µM
[35] = second compound 1 µM, first compound 3.16 µM
[36] = second compound 1 µM, first compound 10 µM
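Also: spheroids exposed to compounds for 7 days before readout.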

Cc1nc(N2CCC3(CC2)COC(C)C3N)c(CO)nc1Sc1ccnc(N)c1Cl (centres undefined) + C=CC(=O)N1CCN(c2nc(OCC3CCCN3C)nc3c(F)c(-c4nc(N)cc(C)c4C(F)(F)F)c(Cl)cc23)C(C)C1
inactive: viability, T/C [1] 19% | viability, T/C [2] 17.5% | viability, T/C [3] 16.5% | viability, T/C [4] 17.4% | viability, T/C [5] 16.4% | viability, T/C [6] 17.3% | viability, T/C [7] 17.8% | viability, T/C [8] 17.4% | viability, T/C [9] 18.4% | viability, T/C [10] 20.9% | viability, T/C [11] 16.2% | viability, T/C [12] 16.3% | viability, T/C [13] 18.5% | viability, T/C [14] 18.3% | viability, T/C [15] 13.9% | viability, T/C [16] 15.6% | viability, T/C [17] 15.9% | viability, T/C [18] 16.9% | viability, T/C [19] 19% | viability, T/C [20] 16.7% | viability, T/C [21] 15.5% | viability, T/C [22] 17.6% | viability, T/C [23] 17.8% | viability, T/C [24] 14.9% | viability, T/C [25] 19.3% | viability, T/C [26] 28.2% | viability, T/C [27] 18.2% | viability, T/C [28] 16.4% | viability, T/C [29] 15.9% | viability, T/C [30] 15.9% | viability, T/C [31] 20.2% | viability, T/C [32] 18.2% | viability, T/C [33] 15.9% | viability, T/C [34] 16.1% | viability, T/C [35] 19.1% | viability, T/C [36] 18.1%
< 31.6 nM: IC50 (second compound 0.00316 µM) | IC50 (second compound 0.01 µM) | IC50 (second compound 0.0316 µM) | IC50 (second compound 0.1 µM) | IC50 (second compound 0.316 µM) | IC50 (second compound 1 µM)

CC1(O)CCCC1n1c(=O)c(C(F)F)cc2cnc(NC3CCN(S(C)(=O)=O)CC3)nc21 (centres undefined) + C=CC(=O)N1CCN(c2nc(OCC3CCCN3C)nc3c(F)c(-c4nc(N)cc(C)c4C(F)(F)F)c(Cl)cc23)C(C)C1
< 31.6 nM: IC50 (second compound 0.00316 µM) | IC50 (second compound 0.01 µM) | IC50 (second compound 0.0316 µM) | IC50 (second compound 0.1 µM) | IC50 (second compound 0.316 µM) | IC50 (second compound 1 µM)
inactive: viability, T/C [1] 21.1% | viability, T/C [2] 22.3% | viability, T/C [3] 21.8% | viability, T/C [4] 24.1% | viability, T/C [5] 21.9% | viability, T/C [6] 23.6% | viability, T/C [7] 18.8% | viability, T/C [8] 25.2% | viability, T/C [9] 19.6% | viability, T/C [10] 21.8% | viability, T/C [11] 23% | viability, T/C [12] 26.5% | viability, T/C [13] 18% | viability, T/C [14] 17.9% | viability, T/C [15] 21.4% | viability, T/C [16] 19.1% | viability, T/C [17] 20.3% | viability, T/C [18] 23.1% | viability, T/C [19] 20.1% | viability, T/C [20] 18.7% | viability, T/C [21] 20.1% | viability, T/C [22] 22.8% | viability, T/C [23] 21.8% | viability, T/C [24] 24.6% | viability, T/C [25] 21.1% | viability, T/C [26] 19.9% | viability, T/C [27] 21.4% | viability, T/C [28] 22.1% | viability, T/C [29] 21.6% | viability, T/C [30] 28.1% | viability, T/C [31] 21.1% | viability, T/C [32] 19.7% | viability, T/C [33] 26.4% | viability, T/C [34] 21.9% | viability, T/C [35] 24.1% | viability, T/C [36] 33.4%
